In publication PMC11395469, “BpfD Is a c-di-GMP Effector Protein Playing a Key Role for Pellicle Biosynthesis in Shewanella oneidensis” (International Journal of Molecular Sciences, 2024):

Molecular target: T1, BpfD (Shewanella oneidensis, UniProt Q8E9G0)
T1 construct: gene SO_4323; BpfDS, cytoplasmic part (S225 to E639) with degenerated GGDEF and EAL domains, Strep-tagged
T1 sequence (Q8E9G0 225-639): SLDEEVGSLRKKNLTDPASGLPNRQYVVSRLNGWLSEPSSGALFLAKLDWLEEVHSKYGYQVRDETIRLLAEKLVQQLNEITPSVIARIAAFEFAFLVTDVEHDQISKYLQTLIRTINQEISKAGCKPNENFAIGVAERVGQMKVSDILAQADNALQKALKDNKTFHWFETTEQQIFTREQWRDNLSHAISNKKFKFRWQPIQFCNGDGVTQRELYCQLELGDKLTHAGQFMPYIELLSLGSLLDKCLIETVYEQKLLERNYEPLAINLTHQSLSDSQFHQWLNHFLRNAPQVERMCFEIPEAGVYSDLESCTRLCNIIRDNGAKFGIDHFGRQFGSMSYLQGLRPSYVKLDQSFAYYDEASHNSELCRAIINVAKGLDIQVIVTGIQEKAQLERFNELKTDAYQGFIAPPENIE
Experiment: isothermal titration calorimetry with purified BpfDS; supported by thermal shift assays
Assay type: binding

## Nc1nc2c(ncn2[C@@H]2O[C@@H]3CO[P@](=O)(O)O[C@H]4[C@@H](O)[C@H](n5cnc6c(=O)[nH]c(N)nc65)O[C@@H]4CO[P@](=O)(O)O[C@H]3[C@H]2O)c(=O)[nH]1 [c-di-GMP]
  Kd: 4.38 ± 0.8 µM
